Source: publication PMC3242765, “Inhibitors of Alphavirus Entry and Replication Identified with a Stable Chikungunya Replicon Cell Line and Virus-Based Assays” (PLoS ONE, 2011)

Tested on: SFV-Rluc
Conditions: for SFV replication % left: primary screening of chemical libraries, compounds tested at 50 µM; for % left (remaining SFV replication): Supplementary Table 2, moderately active compounds (25 - 60% remaining), primary screen at 50 µM

SMILES	SFV replication % left [%]	% left (remaining SFV replication) [%]
COc1cc(C(=O)O)cc(OC)c1O [NC-097]	61.1	
CC[C@@]1(O)C(=O)OCc2c1cc1n(c2=O)Cc2cc3ccccc3nc2-1 [NC-099]	87.7	
O=C1c2c(O)cc(O)cc2O[C@H](c2ccc(O)c(O)c2)[C@H]1O [NC-100]	93.7	
Cc1ccc(C(C)C)c(O)c1 [NC-101]	42.0	42.0
COc1cc(C(=O)O)cc(OC)c1OC [NC-102]	34.0	34.1
Cc1c(C)c2c(c(C)c1O)CCC(C)(C(=O)O)O2 (centres unmarked) [NC-103]	76.9	
O=c1ccc2ccc(O)cc2o1 [NC-104]	93.1	
COc1cc(C(=O)O)ccc1O [NC-105]	53.4	
COc1cc(C=O)ccc1O [NC-106]	47.9	47.9
Cc1cc(C(C)(C)C)c(O)c(C(C)(C)C)c1 [NC-107]	72.6	
Cc1cc(=O)oc2cc(O)ccc12 [NC-108]	90.9	
COc1cc2oc(=O)ccc2cc1O [NC-109]	120.6	
COc1cc2ccc(=O)oc2c(O)c1O [NC-110]	103.6	
COc1cc2ccc(=O)oc2c(O)c1OC [NC-111]	77.8	
O=c1ccc2ccc(O)c(O)c2o1 [NC-112]	90.6	
COc1ccc2ccc(=O)oc2c1O [NC-113]	105.6	
COc1cc2ccc(=O)oc2cc1O [NC-114]	81.9	
O=c1ccc2ccc(O)cc2o1 [NC-115]	78.4	
Cc1ccc2oc(=O)ccc2c1 [NC-116]	83.6	
O=c1cc(O)c2ccccc2o1 [NC-117]	100.2	
CC(=O)CC(c1ccccc1)c1c(O)c2ccccc2oc1=O (centres unmarked) [NC-118]	79.5	
COc1ccc2oc(=O)cc(C)c2c1 [NC-119]	66.6	
COc1ccc2c(C)cc(=O)oc2c1 [NC-120]	72.2	
Cc1cc(=O)oc2cc(O)cc(O)c12 [NC-122]	66.7	
CN1CCCCC1CCN1c2ccccc2Sc2ccc([S+](C)[O-])cc21 (centres unmarked) [NC-123]	131.1	

SMILES	SFV replication % left [%]	% left (remaining SFV replication) [%]
COc1ccc2ccc(=O)oc2c1 [NC-124]	53.2	
O=C(O)c1cc2cc(Br)cc(Br)c2oc1=O [NC-125]	67.4	
O=c1ccc2cc(O)c(O)cc2o1 [NC-126]	103.6	
O.O.O.O=c1ccc2cc(O[C@@H]3O[C@H](CO)[C@@H](O)[C@H](O)[C@H]3O)c(O)cc2o1.O=c1ccc2cc(O[C@@H]3O[C@H](CO)[C@@H](O)[C@H](O)[C@H]3O)c(O)cc2o1 [NC-127]	95.0	
COc1cc(OC)c2ccc(=O)oc2c1 [NC-128]	67.4	
COc1c2occc2cc2ccc(=O)oc12 [NC-129]	86.7	
O=c1oc2c3c4c(cc2c2c1CCC2)CCCN4CCC3 [NC-130]	82.1	
O=c1cc(C(F)(F)F)c2cc3c4c(c2o1)CCCN4CCC3 [NC-131]	52.6	
CC(=O)Nc1ccc(O)cc1 [PC001-]	63.5	
CC(=O)Nc1ccccc1 [PC-002]	57.3	
CC(=O)Nc1nnc(S(N)(=O)=O)s1 [PC-003]	71.3	
O=C1NC2NC(=O)NC2N1 (centres unmarked) [PC-004]	55.2	
CC(=O)NS(=O)(=O)c1ccc(N)cc1 [PC-005]	63.2	
N[C@@H](Cc1ccc(O)c(O)c1)C(=O)O [PC-007]	43.6	
C=CCC1(CC=C)C(=O)NC(=O)NC1=O [PC-008]	45.6	
C=CC[C@]1(O)CC[C@H]2[C@@H]3CCC4=CCCC[C@@H]4[C@H]3CC[C@@]21C [PC-009]	37.2	
Nc1ccc(C(=O)O)cc1 [PC-010]	56.5	
Cc1c(N)c(=O)n(-c2ccccc2)n1C [PC-011]	51.6	
CCC(CN(C)C)(CN(C)C)OC(=O)c1ccccc1.Cl [PC-012]	43.4	
C[C@@]12CCC[C@H]1[C@@H]1CC[C@H]3CCCC[C@]3(C)[C@H]1CC2 [PC-013]	53.0	
Cl.c1ccc(CN(CC2=NCCN2)c2ccccc2)cc1 [PC-014]	38.7	
Cc1cc(=O)n(-c2ccccc2)n1C [PC-015]	60.1	
Br.COC(=O)C1=CCCN(C)C1 [PC-016]	83.6	
CC(C)NCC(O)COc1ccc(CC(N)=O)cc1 (centres unmarked) [PC-017]	44.2	
C[N+]1(C)[C@@H]2CC[C@H]1C[C@@H](OC(=O)C(CO)c1ccccc1)C2.O=[N+]([O-])[O-] (some centres unmarked) [PC-018]	46.8	

SMILES	SFV replication % left [%]	% left (remaining SFV replication) [%]
CCCCNCC(O)c1ccc(O)cc1 (centres unmarked) [PC-019]	67.1	
CCC1(CC)C(=O)NC(=O)NC1=O [PC-020]	64.7	
O=C1CC(=O)NC(=O)N1 [PC-021]	48.8	
CCOC(=O)c1ccc(N)cc1 [PC-023]	43.4	
CN(Cc1cc(Br)cc(Br)c1N)C1CCCCC1.Cl [PC-024]	64.8	
CCCCNC(=O)c1ccc(Cl)cc1O [PC-025]	49.6	
CC(C)(C)NCC(O)COc1ccccc1C#N (centres unmarked) [PC-026]	40.7	
CC(C)(C)NC[C@H](O)COc1cccc2c1CCCC2=O [PC-027]	59.6	
CS(=O)(=O)OCCCCOS(C)(=O)=O [PC-028]	51.8	
CCCCC1(CC)C(=O)NC(=O)NC1=O [PC-029]	45.2	
CCC(C)NCC(O)c1ccc2c(c1)CCCC2 (centres unmarked) [PC-030]	73.1	
CCCCOC(=O)c1ccc(N)cc1 [PC-031]	76.6	
CCCCNc1ccc(C(=O)OCCN(C)C)cc1.Cl [PC-032]	45.4	45.2
CCCCNC(=O)NS(=O)(=O)c1ccc(N)cc1 [PC-033]	83.9	
CCCCNc1ccc(C(=O)OCCN(C)C)cc1.Cl [PC-034]	63.8	
CC(C)(CO)[C@@H](O)C(=O)NCCC(=O)[O-].CC(C)(CO)[C@@H](O)C(=O)NCCC(=O)[O-].[Ca+2] [PC-035]	67.9	
CC12CCC(CC1=O)C2(C)C (centres unmarked) [PC-036]	83.9	
NC(=O)N1c2ccccc2C=Cc2ccccc21 [PC-037]	57.2	57.3
CC(C)(C)NCC(O)COc1cccc2c1CCC(=O)N2.Cl (centres unmarked) [PC-038]	67.2	
CCCCCCCCCCCCCCCC[N+](C)(C)C.[Br-] [PC-039]	75.0	
O=C(N[C@H](CO)[C@H](O)c1ccc([N+](=O)[O-])cc1)C(Cl)Cl [PC-040]	73.8	
CNC1=Nc2ccc(Cl)cc2C(c2ccccc2)=[N+]([O-])C1 [PC-041]	54.3	54.3
CC(C)(O)C(Cl)(Cl)Cl [PC-042]	84.2	
CN1C(=O)CN=C(c2ccc(Cl)cc2)c2cc(Cl)ccc21 [PC-043]	64.0	
